Test results as given in patent publication US9115101B2 (Genentech, Inc., priority 2012, dated 2015).

target: T1, RORc ligand binding domain (Homo sapiens, UniProt P51449); experiment: In Vitro RORc Ligand Binding Assay (25-[3H]hydroxycholesterol radioligand filtration); conditions: In Vitro RORc Ligand Binding Assay; Table 4; read-out: RORc IC50
T1 construct: host or cells: E. coli
T1 sequence (P51449 269-508 limits assumed): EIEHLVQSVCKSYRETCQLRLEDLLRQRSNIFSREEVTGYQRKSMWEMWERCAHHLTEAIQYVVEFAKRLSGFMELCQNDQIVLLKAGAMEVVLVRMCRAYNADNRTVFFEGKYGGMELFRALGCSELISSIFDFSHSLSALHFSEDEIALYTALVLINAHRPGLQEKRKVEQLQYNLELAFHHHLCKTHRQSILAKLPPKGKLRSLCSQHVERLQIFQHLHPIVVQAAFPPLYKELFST

**Q.** How did the IC50 turn out when `C[C@H]1CCC(c2ccccc2)S(=O)(=O)N1Cc1ccc(C(=O)NCCC2CCCN(S(C)(=O)=O)C2)cc1` (stereo partly drawn) [Example 371, N-[2-(1-Methanesulfonyl-piperidin-3-yl)-ethyl]-4-((3S)-methyl-1,1-dioxo-6-phenyl-[1,2]thiazinan-2-ylmethyl)-benzamide] was run?
**A.** Its IC50 is 3.63 µM.

**Q.** How did the IC50 turn out when `C[C@H]1CCC(c2ccccc2)S(=O)(=O)N1Cc1ccc(C(=O)N2CC3(CCOC3)C2)cc1` (stereo partly drawn) [Example 372, [4-((3S)-Methyl-1,1-dioxo-6-phenyl-[1,2]thiazinan-2-ylmethyl)-phenyl]-(6-oxa-2-aza-spiro[3.4]oct-2-yl)-methanone] was run?
**A.** The IC50 was 3.04 µM.

**Q.** Which IC50 does the source give for `C[C@H]1CCC(c2ccccc2)S(=O)(=O)N1Cc1ccc(C(=O)N2CCn3nccc3C2)cc1` (stereo partly drawn) [Example 373, (6,7-Dihydro-4H-pyrazolo[1,5-a]pyrazin-5-yl)-[4-((3S)-methyl-1,1-dioxo-6-phenyl-[1,2]thiazinan-2-ylmethyl)-phenyl]-methanone] here?
**A.** Its IC50 is 4.36 µM.

**Q.** How did the IC50 turn out when `Cc1ncc2n1CCN(c1ccc(CN3[C@@H](C)CCC(c4ccccc4)S3(=O)=O)c(F)c1)C2` (stereo partly drawn) [Example 374, 7-[3-Fluoro-4-((3S)-methyl-1,1-dioxo-6-phenyl-[1,2]thiazinan-2-ylmethyl)-phenyl]-3-methyl-5,6,7,8-tetrahydro-imidazo[1,5-a]pyrazine] was run?
**A.** Its IC50 is 0.166 µM.

**Q.** With `CC(=O)N1CCN(c2ccc(CN3[C@@H](C)CCC(c4ccccc4)S3(=O)=O)c(F)c2)C[C@@H]1C(N)=O` (stereo partly drawn) [Example 375, (R)-1-Acetyl-4-[3-fluoro-4-((3S)-methyl-1,1-dioxo-6-phenyl-[1,2]thiazinan-2-ylmethyl)-phenyl]-piperazine-2-carboxylic acid amide] as the molecule, how does the IC50 read?
**A.** Its IC50 is 0.156 µM.

**Q.** How did the IC50 turn out when `CC(=O)N1CCN(c2ccc(CN3[C@@H](C)CCC(c4ccccc4)S3(=O)=O)c(F)c2)C[C@@H]1C#N` (stereo partly drawn) [Example 376, (R)-1-Acetyl-4-[3-fluoro-4-((3S)-methyl-1,1-dioxo-6-phenyl-[1,2]thiazinan-2-ylmethyl)-phenyl]-piperazine-2-carbonitrile] was run?
**A.** The IC50 was 0.078 µM.

**Q.** For `CC(=O)N1CCN(c2ccc(CN3[C@@H](C)CCC(c4ccccc4)S3(=O)=O)c(F)c2)C[C@H]1C(=O)O` (stereo partly drawn) [Example 377, (S)-1-Acetyl-4-[3-fluoro-4-((3S)-methyl-1,1-dioxo-6-phenyl-[1,2]thiazinan-2-ylmethyl)-phenyl]-piperazine-2-carboxylic acid], which IC50 is on record?
**A.** The IC50 was 1.36 µM.

**Q.** Which IC50 does the source give for `CC(=O)N1CCN(c2ccc(CN3[C@@H](C)CCC(c4ccccc4)S3(=O)=O)c(F)c2)C[C@H]1CO` (stereo partly drawn) [Example 378, 1-{(S)-4-[3-Fluoro-4-((3S)-methyl-1,1-dioxo-6-phenyl-[1,2]thiazinan-2-ylmethyl)-phenyl]-2-hydroxymethyl-piperazin-1-yl}-ethanone] here?
**A.** Its IC50 is 0.061 µM.

**Q.** How did the IC50 turn out when `CC(=O)N1CCN(c2ccc(CN3[C@@H](C)CCC(c4ccccc4)S3(=O)=O)c(F)c2)C[C@H]1C(=O)N(C)C` (stereo partly drawn) [Example 379, (S)-1-Acetyl-4-[3-fluoro-4-((3S)-methyl-1,1-dioxo-6-phenyl-[1,2]thiazinan-2-ylmethyl)-phenyl]-piperazine-2-carboxylic acid dimethylamide] was run?
**A.** The IC50 was 0.882 µM.

**Q.** With `CNC(=O)[C@@H]1CN(c2ccc(CN3[C@@H](C)CCC(c4ccccc4)S3(=O)=O)c(F)c2)CCN1C(C)=O` (stereo partly drawn) [Example 380, (S)-1-Acetyl-4-[3-fluoro-4-((3S)-methyl-1,1-dioxo-6-phenyl-[1,2]thiazinan-2-ylmethyl)-phenyl]-piperazine-2-carboxylic acid methylamide] as the molecule, how does the IC50 read?
**A.** The IC50 was 0.138 µM.

**Q.** Which IC50 does the source give for `CC(=O)N1CCN(c2ccc(CN3[C@@H](C)CCC(c4ccccc4)S3(=O)=O)c(F)c2)C[C@H]1C(N)=O` (stereo partly drawn) [Example 381, (S)-1-Acetyl-4-[3-fluoro-4-((3S)-methyl-1,1-dioxo-6-phenyl-[1,2]thiazinan-2-ylmethyl)-phenyl]-piperazine-2-carboxylic acid amide] here?
**A.** The IC50 was 0.522 µM.

**Q.** For `COC(=O)[C@@H]1CN(c2ccc(CN3[C@@H](C)CCC(c4ccccc4)S3(=O)=O)c(F)c2)CCN1C(C)=O` (stereo partly drawn) [Example 382, (S)-1-Acetyl-4-[3-fluoro-4-((3S)-methyl-1,1-dioxo-6-phenyl-[1,2]thiazinan-2-ylmethyl)-phenyl]-piperazine-2-carboxylic acid methyl ester], which IC50 is on record?
**A.** Its IC50 is 0.034 µM.

**Q.** `CNC(=O)[C@H]1CN(c2ccc(CN3[C@@H](C)CCC(c4ccccc4)S3(=O)=O)c(F)c2)CCN1C(C)=O` (stereo partly drawn) [Example 383, (R)-1-Acetyl-4-[3-fluoro-4-((3S)-methyl-1,1-dioxo-6-phenyl-[1,2]thiazinan-2-ylmethyl)-phenyl]-piperazine-2-carboxylic acid methylamide] was tested. Which IC50 did it give?
**A.** Its IC50 is 0.705 µM.

**Q.** `CC(=O)N1CCN(c2ccc(CN3[C@@H](C)CCC(c4ccccc4)S3(=O)=O)c(F)c2)C[C@@H]1C(=O)N(C)C` (stereo partly drawn) [Example 384, (R)-1-Acetyl-4-[3-fluoro-4-((3S)-methyl-1,1-dioxo-6-phenyl-[1,2]thiazinan-2-ylmethyl)-phenyl]-piperazine-2-carboxylic acid dimethylamide] was tested. Which IC50 did it give?
**A.** Its IC50 is 1.72 µM.

**Q.** `CC(=O)N1CCN(c2ccc(CN3[C@@H](C)CCC(c4ccccc4)S3(=O)=O)c(F)c2)C[C@H]1C#N` (stereo partly drawn) [Example 385, (S)-1-Acetyl-4-[3-fluoro-4-((3S)-methyl-1,1-dioxo-6-phenyl-[1,2]thiazinan-2-ylmethyl)-phenyl]-piperazine-2-carbonitrile] was tested. Which IC50 did it give?
**A.** The IC50 was 0.24 µM.

**Q.** For `C[C@H]1CCC(c2ccccc2)S(=O)(=O)N1Cc1ccc(C(=O)NC2CCS(=O)(=O)CC2)cc1` (stereo partly drawn) [Example 386, N-(1,1-Dioxo-hexahydro-1-thiopyran-4-yl)-4-((3S)-methyl-1,1-dioxo-6-phenyl-[1,2]thiazinan-2-ylmethyl)-benzamide], which IC50 is on record?
**A.** Its IC50 is 1.49 µM.

**Q.** Which IC50 does the source give for `C[C@H]1CCC(c2ccccc2)S(=O)(=O)N1Cc1ccc(C(=O)NC2CN(S(C)(=O)=O)C2)cc1` (stereo partly drawn) [Example 387, N-(1-Methanesulfonyl-azetidin-3-yl)-4-((3S)-methyl-1,1-dioxo-6-phenyl-[1,2]thiazinan-2-ylmethyl)-benzamide] here?
**A.** The IC50 was 0.607 µM.

**Q.** For `C[C@H]1CCC(c2ccccc2)S(=O)(=O)N1Cc1ccc(C(=O)N[C@@H]2CCN(S(C)(=O)=O)C2)cc1` (stereo partly drawn) [Example 388, N-((R)-1-Methanesulfonyl-pyrrolidin-3-yl)-4-((3S)-methyl-1,1-dioxo-6-phenyl-[1,2]thiazinan-2-ylmethyl)-benzamide], which IC50 is on record?
**A.** The IC50 was 3.52 µM.

**Q.** Which IC50 does the source give for `C[C@H]1CCC(c2ccccc2)S(=O)(=O)N1Cc1ccc(C(=O)NC2CCS(=O)(=O)C2)cc1` (stereo partly drawn) [Example 389, N-(1,1-Dioxo-tetrahydro-6-thiophen-3-yl)-4-((3S)-methyl-1,1-dioxo-6-phenyl-[1,2]thiazinan-2-ylmethyl)-benzamide] here?
**A.** Its IC50 is 3.22 µM.

**Q.** With `C[C@H]1CCC(c2ccccc2)S(=O)(=O)N1Cc1ccc(C(=O)NC2CN(C(N)=O)C2)cc1` (stereo partly drawn) [Example 390, 3-[4-((3S)-Methyl-1,1-dioxo-6-phenyl-[1,2]thiazinan-2-ylmethyl)-benzoylamino]-azetidine-1-carboxylic acid amide] as the molecule, how does the IC50 read?
**A.** Its IC50 is 5.46 µM.

**Q.** For `C[C@H]1CCC(c2ccccc2)S(=O)(=O)N1Cc1ccc(C(=O)N[C@@H]2CCN(C(N)=O)C2)cc1` (stereo partly drawn) [Example 391, (R)-3-[4-((3S)-Methyl-1,1-dioxo-6-phenyl-[1,2]thiazinan-2-ylmethyl)-benzoylamino]-pyrrolidine-1-carboxylic acid amide], which IC50 is on record?
**A.** The IC50 was 3.43 µM.

**Q.** With `COC(=O)[C@@H]1CN(C(C)=O)CCN1c1ccc(CN2[C@@H](C)CCC(c3ccccc3)S2(=O)=O)c(F)c1` (stereo partly drawn) [Example 392, (S)-4-Acetyl-1-[3-fluoro-4-((3S)-methyl-1,1-dioxo-6-phenyl-[1,2]thiazinan-2-ylmethyl)-phenyl]-piperazine-2-carboxylic acid methyl ester] as the molecule, how does the IC50 read?
**A.** The IC50 was 0.013 µM.

**Q.** For `COCCNC(=O)[C@@H]1CN(c2ccc(CN3[C@@H](C)CCC(c4ccccc4)S3(=O)=O)c(F)c2)CCN1C(C)=O` (stereo partly drawn) [Example 393, (S)-1-Acetyl-4-[3-fluoro-4-((3S)-methyl-1,1-dioxo-6-phenyl-[1,2]thiazinan-2-ylmethyl)-phenyl]-piperazine-2-carboxylic acid (2-methoxy-ethyl)-amide], which IC50 is on record?
**A.** The IC50 was 0.697 µM.

**Q.** For `CC(=O)N1CCN(c2ccc(CN3[C@@H](C)CCC(c4ccccc4)S3(=O)=O)c(F)c2)C[C@H]1C(=O)NC(C)C` (stereo partly drawn) [Example 394, (S)-1-Acetyl-4-[3-fluoro-4-((3S)-methyl-1,1-dioxo-6-phenyl-[1,2]thiazinan-2-ylmethyl)-phenyl]-piperazine-2-carboxylic acid isopropylamide], which IC50 is on record?
**A.** Its IC50 is 3.18 µM.

**Q.** How did the IC50 turn out when `CCCNC(=O)[C@@H]1CN(c2ccc(CN3[C@@H](C)CCC(c4ccccc4)S3(=O)=O)c(F)c2)CCN1C(C)=O` (stereo partly drawn) [Example 395, (S)-1-Acetyl-4-[3-fluoro-4-((3S)-methyl-1,1-dioxo-6-phenyl-[1,2]thiazinan-2-ylmethyl)-phenyl]-piperazine-2-carboxylic acid propylamide] was run?
**A.** The IC50 was 0.287 µM.

**Q.** How did the IC50 turn out when `C[C@H]1CCC(c2ccccc2)S(=O)(=O)N1Cc1ccc(N2CCN3C(=O)CNC(=O)[C@H]3C2)cc1F` (stereo partly drawn) [Example 396, (R)-8-[3-Fluoro-4-((3S)-methyl-1,1-dioxo-6-phenyl-[1,2]thiazinan-2-ylmethyl)-phenyl]-hexahydro-pyrazino[1,2-a]pyrazine-1,4-dione] was run?
**A.** The IC50 was 3.25 µM.

**Q.** Which IC50 does the source give for `CCOC(=O)c1ncc2n1CCN(c1ccc(CN3[C@@H](C)CCC(c4ccccc4)S3(=O)=O)c(F)c1)C2` (stereo partly drawn) [Example 397, 7-[3-Fluoro-4-((3S)-methyl-1,1-dioxo-6-phenyl-[1,2]thiazinan-2-ylmethyl)-phenyl]-5,6,7,8-tetrahydro-imidazo[1,5-a]pyrazine-3-carboxylic acid ethyl ester] here?
**A.** Its IC50 is 0.872 µM.

**Q.** `C[C@H]1CCC(c2ccccc2)S(=O)(=O)N1Cc1ccc(C(=O)N2CCS(=O)(=O)CC2)cc1` (stereo partly drawn) [Example 398, (1,1-Dioxo-1-thiomorpholin-4-yl)-[4-((3S)-methyl-1,1-dioxo-6-phenyl-[1,2]thiazinan-2-ylmethyl)-phenyl]-methanone] was tested. Which IC50 did it give?
**A.** Its IC50 is 5.71 µM.
